Measurements: paper PMC6017585, “Molecular Basis for Converting (2S)-Methylsuccinyl-CoA Dehydrogenase into an Oxidase” (Molecules : A Journal of Synthetic Chemistry and Natural …, 2017)

Experiments:
[1] = molecular target: T1, ETF (electron transfer flavoprotein) (Cereibacter sphaeroides, UniProt Q9AQC3+Q9AQC4); experiment: absorbance of ETF-bound FAD at […] nm; format: binding; details: 55 µM ETF reduced by 0.1 µM Mcd, pH 7.8, 30 °C
T1 construct: gene etfA; plasmid pTE392 (pCDFDuet-1), alpha subunit N-terminal His6-tag, E. coli BL21 (DE3), heterodimer
T1 sequence (Q9AQC4 entry or part of it): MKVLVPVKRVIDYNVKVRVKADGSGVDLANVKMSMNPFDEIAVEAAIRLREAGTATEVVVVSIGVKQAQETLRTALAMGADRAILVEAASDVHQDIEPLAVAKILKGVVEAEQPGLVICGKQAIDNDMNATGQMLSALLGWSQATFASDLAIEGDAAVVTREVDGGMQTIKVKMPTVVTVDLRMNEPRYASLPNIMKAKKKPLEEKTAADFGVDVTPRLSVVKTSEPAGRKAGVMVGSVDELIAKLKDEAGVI
T1 sequence (Q9AQC3 entry or part of it): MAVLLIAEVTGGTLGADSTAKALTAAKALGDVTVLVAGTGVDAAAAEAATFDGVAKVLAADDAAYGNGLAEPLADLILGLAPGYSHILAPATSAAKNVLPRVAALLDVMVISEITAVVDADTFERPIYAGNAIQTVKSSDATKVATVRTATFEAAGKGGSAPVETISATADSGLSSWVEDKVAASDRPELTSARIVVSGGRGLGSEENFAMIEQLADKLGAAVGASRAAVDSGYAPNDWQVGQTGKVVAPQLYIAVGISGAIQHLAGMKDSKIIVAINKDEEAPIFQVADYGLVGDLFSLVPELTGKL

[2] = molecular target: T2, (2S)-methylsuccinyl-CoA dehydrogenase (Mcd) (Cereibacter sphaeroides, UniProt D3JV03); details: holoenzyme, pH 7.7, 25 °C
T2 sequence (D3JV03 whole entry): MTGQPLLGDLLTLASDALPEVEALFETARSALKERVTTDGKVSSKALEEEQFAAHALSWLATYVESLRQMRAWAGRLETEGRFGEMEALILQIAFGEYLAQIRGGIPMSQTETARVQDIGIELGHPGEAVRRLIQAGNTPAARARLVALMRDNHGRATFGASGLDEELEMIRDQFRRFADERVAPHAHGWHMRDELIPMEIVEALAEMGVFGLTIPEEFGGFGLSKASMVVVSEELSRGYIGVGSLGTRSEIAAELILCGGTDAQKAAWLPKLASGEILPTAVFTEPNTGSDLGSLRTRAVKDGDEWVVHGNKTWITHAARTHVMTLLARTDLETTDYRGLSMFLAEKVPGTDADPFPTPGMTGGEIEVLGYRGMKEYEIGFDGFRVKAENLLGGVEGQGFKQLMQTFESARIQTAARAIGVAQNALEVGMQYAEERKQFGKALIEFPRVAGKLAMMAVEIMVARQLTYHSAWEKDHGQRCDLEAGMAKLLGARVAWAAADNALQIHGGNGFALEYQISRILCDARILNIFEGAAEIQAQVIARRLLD

[3] = molecular target: T3, (2S)-methylsuccinyl-CoA dehydrogenase (Mcd) (Cereibacter sphaeroides, UniProt D3JV03, W315F/T317G/E377N); details: FAD-reconstituted enzyme, 12 µM (2S)-methylsuccinyl-CoA, pH 7.5
T3 sequence (D3JV03 whole entry W315F/T317G/E377N): as the sequence (D3JV03 whole entry) above, with W315F, T317G, E377N counted along it

[4] = molecular target: T2, (2S)-methylsuccinyl-CoA dehydrogenase (Mcd); details: ETF as electron acceptor (55 µM), pH 7.8, 30 °C
[5] = molecular target: T3, (2S)-methylsuccinyl-CoA dehydrogenase (Mcd); details: dioxygen as electron acceptor, substrate made in situ from ethylmalonyl-CoA, pH 7.8, 30 °C
[6] = molecular target: (2S)-methylsuccinyl-CoA dehydrogenase (Mcd) (Cereibacter sphaeroides, UniProt D3JV03, T317G); details: dioxygen as electron acceptor, substrate made in situ from ethylmalonyl-CoA, pH 7.8, 30 °C
(2S)-methylsuccinyl-CoA dehydrogenase (Mcd) (Cereibacter sphaeroides, UniProt D3JV03, T317G), sequence (D3JV03 whole entry T317G): as the sequence (D3JV03 whole entry) above, with T317G counted along it

Compound	absorbance of ETF-bound FAD at 440 nm [1]	co-purification; visible absorbance of bound flavin at 440 nm [2]	50 kDa ultrafiltration of FAD; flow-through spectrum [3]	LC-MS mesaconyl-CoA formation; FAD / ETF absorbance at 440 nm [4]	LC mesaconyl-CoA formation; FAD absorbance at 440 nm [5]	LC mesaconyl-CoA formation; FAD absorbance at 440 nm [6]
Cc1cc2nc3c(=O)[nH]c(=O)nc-3n(C[C@H](O)[C@H](O)[C@H](O)COP(=O)(O)OP(=O)(O)OC[C@H]3O[C@@H](n4cnc5c(N)ncnc54)[C@H](O)[C@@H]3O)c2cc1C [FAD]	allowed for the direct observation of ETF-bound FAD	Concentration of Mcd, which eluted with bound FAD cofactor	FAD does not dissociate from the enzyme during catalysis			
C[C@@H](CC(=O)O)C(=O)SCCNC(=O)CCNC(=O)[C@H](O)C(C)(C)COP(=O)(O)OP(=O)(O)OC[C@H]1O[C@@H](n2cnc3c(N)ncnc32)[C@H](O)[C@@H]1OP(=O)(O)O (mixture of isomers) [(2S)-methylsuccinyl-CoA]				Mcd showed a fast electron transfer from the CTC to ETF	The re-oxidation of the two enzymes was accompanied by product (mesaconyl-CoA) formation	The re-oxidation of the two enzymes was accompanied by product (mesaconyl-CoA) formation
